In ChEMBL document CHEMBL5696443 (Clin Cancer Res, 2016):
Calls of active or inactive are those of the source. The calls are words filed in the database; no cut-off is given here.

What was measured:
[1] = target: Casein kinase II subunit alpha' (Homo sapiens) (UniProt P19784); test: Inhibition of human CK2a2 at 1 uM using RRRDDDSDDD as substrate in presence of [gamma33P]-ATP by HotSpot assay relative to control
[2] = target: Tyrosine-protein kinase Fes/Fps (Homo sapiens, UniProt P07332); test: Inhibition of human FES using poly (Glu, Tyr)4:1 as substrate in presence of [gamma33P]-ATP by HotSpot assay
[3] = Average plasma concentration in CB-17/SCID mouse at 25 mg/kg administered once a day for 4 days by LC-MS/MS analysis; assay type: ADME, organism-based; conditions: in vivo, 96 h, time 4 day
[4] = target: Serine/threonine-protein kinase 4 (Homo sapiens, UniProt Q13043); test: Inhibition of human STK4 using KKSRGDYMTMQIG as substrate in presence of [gamma33P]-ATP by HotSpot assay
[5] = target: Calcium/calmodulin-dependent protein kinase type 1D (Homo sapiens) (UniProt Q8IU85); test: Inhibition of human CAMK1D at 1 uM using KKALRRQETVDAL as substrate in presence of [gamma33P]-ATP by HotSpot assay relative to control
[6] = target: Ribosomal protein S6 kinase beta-1 (Homo sapiens) (UniProt P23443); test: Inhibition of human P70S6K at 1 uM using KKRNRTLTK as substrate in presence of [gamma33P]-ATP by HotSpot assay relative to control
[7] = target: G protein-coupled receptor kinase 3 (Homo sapiens) (UniProt P35626); test: Inhibition of human ADRBK2 at 1 uM using casein as substrate in presence of [gamma33P]-ATP by HotSpot assay relative to control
G protein-coupled receptor kinase 3 (Homo sapiens), sequence (P35626 whole entry): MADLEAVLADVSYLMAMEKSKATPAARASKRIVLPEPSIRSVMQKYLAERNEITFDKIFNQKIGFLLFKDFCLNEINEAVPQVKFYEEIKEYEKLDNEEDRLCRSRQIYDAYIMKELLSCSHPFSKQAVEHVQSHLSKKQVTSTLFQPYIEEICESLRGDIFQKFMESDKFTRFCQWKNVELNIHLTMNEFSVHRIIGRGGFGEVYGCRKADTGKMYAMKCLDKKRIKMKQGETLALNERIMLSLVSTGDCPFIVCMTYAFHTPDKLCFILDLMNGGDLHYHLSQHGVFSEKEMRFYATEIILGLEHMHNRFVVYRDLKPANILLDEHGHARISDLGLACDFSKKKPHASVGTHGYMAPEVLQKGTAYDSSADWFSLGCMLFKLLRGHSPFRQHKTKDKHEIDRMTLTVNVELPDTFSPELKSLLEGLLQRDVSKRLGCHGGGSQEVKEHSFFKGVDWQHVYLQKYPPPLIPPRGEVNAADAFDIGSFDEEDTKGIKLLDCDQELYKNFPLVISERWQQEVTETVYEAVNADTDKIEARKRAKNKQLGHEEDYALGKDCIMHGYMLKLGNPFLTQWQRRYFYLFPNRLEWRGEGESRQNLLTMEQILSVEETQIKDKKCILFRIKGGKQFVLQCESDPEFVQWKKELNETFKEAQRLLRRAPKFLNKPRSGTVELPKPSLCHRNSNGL

[8] = target: Macrophage colony-stimulating factor 1 receptor (Homo sapiens, UniProt P07333); test: Inhibition of human FMS using poly (Glu, Tyr)4:1 as substrate in presence of [gamma33P]-ATP by HotSpot assay
Macrophage colony-stimulating factor 1 receptor, sequence (P07333 whole entry): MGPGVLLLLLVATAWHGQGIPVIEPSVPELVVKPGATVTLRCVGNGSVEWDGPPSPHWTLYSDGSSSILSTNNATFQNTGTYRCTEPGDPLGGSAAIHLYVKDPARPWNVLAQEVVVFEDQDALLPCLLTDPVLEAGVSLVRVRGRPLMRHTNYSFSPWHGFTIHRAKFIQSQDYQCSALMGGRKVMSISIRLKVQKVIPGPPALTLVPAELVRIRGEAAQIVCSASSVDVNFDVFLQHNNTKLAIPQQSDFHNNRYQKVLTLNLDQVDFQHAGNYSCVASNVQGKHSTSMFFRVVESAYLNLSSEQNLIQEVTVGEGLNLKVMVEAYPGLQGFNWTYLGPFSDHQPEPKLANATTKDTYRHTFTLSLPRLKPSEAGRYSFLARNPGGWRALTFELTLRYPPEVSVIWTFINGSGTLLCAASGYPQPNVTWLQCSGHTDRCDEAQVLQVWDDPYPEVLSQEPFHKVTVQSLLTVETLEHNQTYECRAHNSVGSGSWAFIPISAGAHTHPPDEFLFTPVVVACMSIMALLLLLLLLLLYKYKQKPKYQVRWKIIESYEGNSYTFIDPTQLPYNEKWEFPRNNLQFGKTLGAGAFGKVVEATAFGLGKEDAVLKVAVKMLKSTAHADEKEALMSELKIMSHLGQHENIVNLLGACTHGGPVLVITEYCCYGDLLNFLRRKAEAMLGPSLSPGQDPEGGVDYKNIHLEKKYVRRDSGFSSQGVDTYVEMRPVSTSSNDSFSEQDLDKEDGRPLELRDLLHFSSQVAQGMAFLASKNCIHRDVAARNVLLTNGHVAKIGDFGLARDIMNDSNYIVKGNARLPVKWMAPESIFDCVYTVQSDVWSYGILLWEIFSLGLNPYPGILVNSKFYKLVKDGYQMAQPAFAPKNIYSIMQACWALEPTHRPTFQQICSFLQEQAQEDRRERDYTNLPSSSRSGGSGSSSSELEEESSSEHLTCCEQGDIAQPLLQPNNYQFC

[9] = target: Cyclin-dependent kinase 4/cyclin D1 (Homo sapiens) (UniProt P11802+P24385); test: Inhibition of human CDK4/CyclinD1 at 1 uM using RB protein as substrate in presence of [gamma33P]-ATP by HotSpot assay relative to control; assay type: protein-complex assay
[10] = target: Tyrosine-protein kinase HCK (Homo sapiens, UniProt P08631); test: Inhibition of human HCK using KVEKIGEGTYGVVYK as substrate in presence of [gamma33P]-ATP by HotSpot assay
[11] = target: Dual specificity tyrosine-phosphorylation-regulated kinase 3 (Homo sapiens) (UniProt O43781); test: Inhibition of human DYRK3 at 1 uM using RRRFRPASPLRGPPK as substrate in presence of [gamma33P]-ATP by HotSpot assay relative to control
[12] = system: EML4-ALK (Homo sapiens), Q9UM73+Q9HC35 [I1171N]; conditions: BaF3, time 3-5 weeks
Ephrin type-A receptor 1 = Ephrin type-A receptor 1 (Homo sapiens, UniProt P21709); test: Inhibition of human EPHA1 using poly (Glu, Tyr)4:1 as substrate in presence of [gamma33P]-ATP by HotSpot assay
[13] = system: EML4-ALK (Homo sapiens), Q9UM73+Q9HC35 [D1203N]; conditions: BaF3, dose 500.0 nmol/L, time 3-5 weeks
[14] = target: Death-associated protein kinase 2 (Homo sapiens) (UniProt Q9UIK4); test: Inhibition of human DAPK2 at 1 uM using KKLNRTLSFAEPG as substrate in presence of [gamma33P]-ATP by HotSpot assay relative to control
Death-associated protein kinase 2 (Homo sapiens), sequence (Q9UIK4 whole entry, looked up): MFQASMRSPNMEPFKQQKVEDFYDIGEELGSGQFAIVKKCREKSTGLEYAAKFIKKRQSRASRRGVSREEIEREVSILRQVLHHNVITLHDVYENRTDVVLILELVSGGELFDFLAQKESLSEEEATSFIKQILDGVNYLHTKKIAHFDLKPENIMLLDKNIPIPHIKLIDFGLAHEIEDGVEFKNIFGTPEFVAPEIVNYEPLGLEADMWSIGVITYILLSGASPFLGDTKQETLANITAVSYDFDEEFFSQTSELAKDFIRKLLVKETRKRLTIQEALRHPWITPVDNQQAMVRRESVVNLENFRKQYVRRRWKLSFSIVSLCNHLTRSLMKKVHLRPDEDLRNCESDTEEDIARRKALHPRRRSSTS

[15] = target: Tyrosine-protein kinase Fgr (Homo sapiens, UniProt P09769); test: Inhibition of human FGR using poly (Glu, Tyr)4:1 as substrate in presence of [gamma33P]-ATP by HotSpot assay
[16] = target: Serine/threonine-protein kinase Nek1 (Homo sapiens) (UniProt Q96PY6); test: Inhibition of human NEK1 at 1 uM using MBP as substrate in presence of [gamma33P]-ATP by HotSpot assay relative to control
[17] = target: Calcium/calmodulin-dependent protein kinase type 1 (Homo sapiens) (UniProt Q14012); test: Inhibition of human CAMK1a at 1 uM using KKALRRQETVDAL as substrate in presence of [gamma33P]-ATP by HotSpot assay relative to control
Calcium/calmodulin-dependent protein kinase type 1 (Homo sapiens), sequence (Q14012 whole entry, looked up): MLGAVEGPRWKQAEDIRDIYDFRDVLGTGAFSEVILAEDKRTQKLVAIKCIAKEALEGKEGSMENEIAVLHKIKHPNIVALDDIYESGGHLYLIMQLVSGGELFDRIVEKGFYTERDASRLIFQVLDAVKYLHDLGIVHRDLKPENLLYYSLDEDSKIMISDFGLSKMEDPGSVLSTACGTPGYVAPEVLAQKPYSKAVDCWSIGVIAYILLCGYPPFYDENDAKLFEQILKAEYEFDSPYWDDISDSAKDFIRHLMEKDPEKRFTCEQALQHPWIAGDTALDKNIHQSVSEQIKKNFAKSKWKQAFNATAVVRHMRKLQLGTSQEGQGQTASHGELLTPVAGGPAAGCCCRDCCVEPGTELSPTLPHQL

[18] = target: Fibroblast growth factor receptor 2 (Homo sapiens, UniProt P21802); test: Inhibition of human FGFR2 using poly (Glu, Tyr)4:1 as substrate in presence of [gamma33P]-ATP by HotSpot assay
Fibroblast growth factor receptor 2, sequence (P21802 whole entry): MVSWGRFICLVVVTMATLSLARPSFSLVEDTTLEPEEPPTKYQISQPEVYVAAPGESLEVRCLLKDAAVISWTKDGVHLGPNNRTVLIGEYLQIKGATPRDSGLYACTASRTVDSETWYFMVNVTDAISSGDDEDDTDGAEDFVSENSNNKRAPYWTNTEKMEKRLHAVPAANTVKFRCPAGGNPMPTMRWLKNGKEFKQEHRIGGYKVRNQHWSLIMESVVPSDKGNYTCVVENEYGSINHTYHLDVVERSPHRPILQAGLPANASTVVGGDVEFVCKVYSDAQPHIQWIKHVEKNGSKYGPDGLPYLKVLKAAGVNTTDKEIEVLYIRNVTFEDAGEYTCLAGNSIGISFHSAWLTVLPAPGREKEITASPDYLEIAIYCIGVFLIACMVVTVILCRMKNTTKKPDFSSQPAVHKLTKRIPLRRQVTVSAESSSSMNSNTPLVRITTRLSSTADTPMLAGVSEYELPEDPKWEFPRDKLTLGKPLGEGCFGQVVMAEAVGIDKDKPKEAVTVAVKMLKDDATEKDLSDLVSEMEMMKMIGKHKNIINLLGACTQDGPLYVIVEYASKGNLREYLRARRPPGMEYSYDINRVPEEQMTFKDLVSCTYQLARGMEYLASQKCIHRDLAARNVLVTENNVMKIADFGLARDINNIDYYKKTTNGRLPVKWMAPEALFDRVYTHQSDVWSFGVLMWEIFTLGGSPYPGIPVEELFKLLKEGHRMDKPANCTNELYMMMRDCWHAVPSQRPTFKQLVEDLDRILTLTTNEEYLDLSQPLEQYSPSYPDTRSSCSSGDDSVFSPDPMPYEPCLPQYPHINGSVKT

[19] = Average plasma concentration in CB-17/SCID mouse at 50 mg/kg administered once a day for 4 days by LC-MS/MS analysis; assay type: ADME, organism-based; conditions: in vivo, 96 h, time 4 day
NCI-H3122 = conditions: time 72 hrs
[20] = target: Protein-tyrosine kinase 2-beta (Homo sapiens, UniProt Q14289); test: Inhibition of human PTK2B using poly (Glu, Tyr)4:1 as substrate in presence of [gamma33P]-ATP by HotSpot assay
[21] = target: Dual specificity protein kinase CLK2 (Homo sapiens, UniProt P49760); test: Inhibition of human CLK2 using MBP as substrate in presence of [gamma33P]-ATP by HotSpot assay
[22] = target: Proto-oncogene tyrosine-protein kinase receptor Ret (Homo sapiens, UniProt P07949, V804L); test: Inhibition of human RET V804L mutant using RRRRRRRRRRRVYSTDYYRLFNPS as substrate in presence of [gamma33P]-ATP by HotSpot assay
[23] = target: Wee1-like protein kinase (Homo sapiens) (UniProt P30291); test: Inhibition of human WEE1 at 1 uM using CDK1 (D146N)/cyclin B1 as substrate in presence of [gamma33P]-ATP by HotSpot assay relative to control
Wee1-like protein kinase (Homo sapiens), sequence (P30291 whole entry, looked up): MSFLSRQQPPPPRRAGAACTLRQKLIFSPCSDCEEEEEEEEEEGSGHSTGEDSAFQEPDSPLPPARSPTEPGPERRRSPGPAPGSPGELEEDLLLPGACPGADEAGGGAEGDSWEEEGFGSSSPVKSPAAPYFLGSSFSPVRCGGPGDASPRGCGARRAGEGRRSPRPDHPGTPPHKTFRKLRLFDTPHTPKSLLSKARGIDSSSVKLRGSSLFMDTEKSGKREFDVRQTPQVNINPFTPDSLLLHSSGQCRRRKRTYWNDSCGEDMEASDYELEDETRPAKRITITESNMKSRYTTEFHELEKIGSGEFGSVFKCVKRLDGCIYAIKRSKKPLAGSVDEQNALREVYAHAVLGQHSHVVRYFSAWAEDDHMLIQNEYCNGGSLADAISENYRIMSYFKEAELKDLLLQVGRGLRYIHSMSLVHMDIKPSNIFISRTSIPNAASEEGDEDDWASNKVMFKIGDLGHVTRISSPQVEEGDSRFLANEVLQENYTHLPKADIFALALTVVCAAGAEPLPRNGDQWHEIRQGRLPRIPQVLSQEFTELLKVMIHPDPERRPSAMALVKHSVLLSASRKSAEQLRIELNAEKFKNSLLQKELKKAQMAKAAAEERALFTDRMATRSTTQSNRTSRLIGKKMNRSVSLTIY

Angiopoietin-1 receptor = Angiopoietin-1 receptor (Homo sapiens, UniProt Q02763); test: Inhibition of human TEK using poly (Glu, Tyr)4:1 as substrate in presence of [gamma33P]-ATP by HotSpot assay
[24] = target: Serine/threonine-protein kinase DCLK2 (Homo sapiens) (UniProt Q8N568); test: Inhibition of human DCLK2 at 1 uM using KKLNRTLSFAEPG as substrate in presence of [gamma33P]-ATP by HotSpot assay relative to control
Serine/threonine-protein kinase DCLK2 (Homo sapiens), sequence (Q8N568 whole entry): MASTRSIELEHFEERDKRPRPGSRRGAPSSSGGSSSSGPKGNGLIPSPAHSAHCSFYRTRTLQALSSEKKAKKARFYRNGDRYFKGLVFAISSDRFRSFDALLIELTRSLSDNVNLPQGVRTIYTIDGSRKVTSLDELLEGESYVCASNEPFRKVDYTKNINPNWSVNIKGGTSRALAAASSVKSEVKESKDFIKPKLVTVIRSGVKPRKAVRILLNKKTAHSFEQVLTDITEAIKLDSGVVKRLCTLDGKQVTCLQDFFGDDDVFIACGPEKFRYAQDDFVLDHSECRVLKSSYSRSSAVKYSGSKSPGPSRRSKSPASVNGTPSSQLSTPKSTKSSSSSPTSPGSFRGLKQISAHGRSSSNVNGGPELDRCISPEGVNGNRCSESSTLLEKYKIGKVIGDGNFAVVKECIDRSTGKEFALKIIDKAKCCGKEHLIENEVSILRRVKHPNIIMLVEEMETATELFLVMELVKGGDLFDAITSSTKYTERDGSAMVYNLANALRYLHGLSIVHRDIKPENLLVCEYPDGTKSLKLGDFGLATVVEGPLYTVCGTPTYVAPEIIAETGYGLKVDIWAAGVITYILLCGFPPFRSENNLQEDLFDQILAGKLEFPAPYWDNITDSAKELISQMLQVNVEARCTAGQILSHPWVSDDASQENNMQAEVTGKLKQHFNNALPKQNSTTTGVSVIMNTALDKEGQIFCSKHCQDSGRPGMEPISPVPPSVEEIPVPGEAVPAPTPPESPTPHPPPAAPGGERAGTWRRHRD

[25] = system: Epidermal growth factor receptor (Homo sapiens), P00533 [L858R]; conditions: BaF3, time 72.0 hrs
[26] = target: Dual specificity protein kinase TTK (Homo sapiens) (UniProt P33981); test: Inhibition of human TTK at 1 uM using MBP as substrate in presence of [gamma33P]-ATP by HotSpot assay relative to control

Casein kinase II subunit alpha' (Homo sapiens), sequence (P19784 whole entry, looked up): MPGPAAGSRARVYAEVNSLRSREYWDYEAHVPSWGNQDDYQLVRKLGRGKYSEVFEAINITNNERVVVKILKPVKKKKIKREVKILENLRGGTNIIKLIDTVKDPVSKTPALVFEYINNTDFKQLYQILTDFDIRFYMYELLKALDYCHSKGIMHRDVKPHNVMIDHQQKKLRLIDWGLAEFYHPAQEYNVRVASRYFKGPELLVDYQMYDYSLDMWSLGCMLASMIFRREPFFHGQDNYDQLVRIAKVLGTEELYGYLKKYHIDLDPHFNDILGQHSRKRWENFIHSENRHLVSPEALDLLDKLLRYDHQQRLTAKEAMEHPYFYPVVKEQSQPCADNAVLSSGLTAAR

SMILES: COc1cc(N2CCC(N3CCN(C)CC3)CC2)ccc1Nc1ncc(Cl)c(Nc2ccccc2P(C)(C)=O)n1 [BRIGATINIB]
- inhibition [1]: < 90%
- IC50 [2]: 3.5 nM
- Cave [3]: 844 nM
- IC50 [4]: > 1000 nM
- inhibition [5]: < 90%
- inhibition [6]: < 90%
- inhibition [7]: < 90%
- IC50 [8]: 358 nM
- inhibition [9]: < 90%
- IC50 [10]: 198 nM
- inhibition [11]: < 90%
- IC90 [12]: 278 nM
- IC50 (Ephrin type-A receptor 1): > 1000 nM
- inhibition [13]: Active
- inhibition [14]: < 90%
- IC50 [15]: 492 nM
- inhibition [16]: < 90%
- inhibition [17]: < 90%
- IC50 [18]: 228 nM
- Cave [19]: 1870 nM
- GI50 (NCI-H3122): 4 nM
- IC50 [20]: 24 nM
- IC50 [21]: 240 nM
- IC50 [22]: 27 nM
- inhibition [23]: < 90%
- IC50 (Angiopoietin-1 receptor): > 1000 nM
- inhibition [24]: < 90%
- IC90 [25]: 1200 nM
- inhibition [26]: < 90%
